Columns and labels:
PTPN1 = target: T1, PTPN1 (Homo sapiens, UniProt P18031); design: DiFMUP hydrolysis by purified PTPs, fluorescence Ex355/Em460, initial rates over 10 min; Michaelis-Menten and Lineweaver-Burk Km; settings: optimized pH for each PTP; substrate
T1 sequence (P18031 1-435): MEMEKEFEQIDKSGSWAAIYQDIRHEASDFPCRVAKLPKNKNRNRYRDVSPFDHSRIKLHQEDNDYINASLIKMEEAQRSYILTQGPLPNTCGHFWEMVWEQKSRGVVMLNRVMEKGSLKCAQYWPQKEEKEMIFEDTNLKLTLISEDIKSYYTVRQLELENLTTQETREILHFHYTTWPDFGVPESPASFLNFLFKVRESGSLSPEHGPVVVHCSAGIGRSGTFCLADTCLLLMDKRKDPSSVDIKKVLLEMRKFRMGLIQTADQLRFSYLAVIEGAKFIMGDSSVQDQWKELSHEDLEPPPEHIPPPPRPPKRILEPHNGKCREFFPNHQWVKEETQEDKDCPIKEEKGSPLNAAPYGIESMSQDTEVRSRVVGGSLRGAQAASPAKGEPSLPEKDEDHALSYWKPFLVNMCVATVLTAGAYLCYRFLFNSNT
Method: (§1) The enzymatic activity of each PTP was evaluated using 6,8-difluoro-4-methylumbelliferyl phosphate (DiFMUP) as the surrogate substrate. To reach within the range of the initial rate (v0) during the measurement for 10 min, the pH and concentration of each PTP were optimized and are listed in Table S3. To determine the Km values, each PTP with optimized concentration was added to the reaction buffer (20 mM Bis-Tris at pH 6.0 or Tris at pH 7.0 and 8.0, 150 mM NaCl, 2.5 mM dithiothreitol (DTT), 0.01% Triton X-100) containing various concentrations of DiFMUP to obtain a final volume of 100 μL in a 96-well plate. Fluorescence intensities were measured once every minute for a complete 10 min duration using a Victor™ X4 Multilabel Plate Reader (Perkin Elmer, Waltham, MA, USA) at excitation/emission = 355 nm/460 nm. The initial rates of the reaction were determined using a previously described procedure for calculating the amount of product formation. To screen a library of 1033 natural products (Chengdu Biopurify Phytochemicals Ltd., Chengdu, China) against 20 PTPs, each PTP with an optimized concentration was added to the reaction buffer with an optimized pH containing DiFMUP (2 × Km for each PTP) after adding each compound (20 μM). […] The Hill coefficient (nH), the degree of cooperativity, was calculated according to a previously published method. […]

PTPRJ = target: T2, PTPRJ (Homo sapiens, UniProt Q12913); design: DiFMUP hydrolysis by purified PTPs, fluorescence Ex355/Em460, initial rates over 10 min; Michaelis-Menten and Lineweaver-Burk Km; settings: optimized pH for each PTP; substrate
T2 sequence (Q12913 1-1337): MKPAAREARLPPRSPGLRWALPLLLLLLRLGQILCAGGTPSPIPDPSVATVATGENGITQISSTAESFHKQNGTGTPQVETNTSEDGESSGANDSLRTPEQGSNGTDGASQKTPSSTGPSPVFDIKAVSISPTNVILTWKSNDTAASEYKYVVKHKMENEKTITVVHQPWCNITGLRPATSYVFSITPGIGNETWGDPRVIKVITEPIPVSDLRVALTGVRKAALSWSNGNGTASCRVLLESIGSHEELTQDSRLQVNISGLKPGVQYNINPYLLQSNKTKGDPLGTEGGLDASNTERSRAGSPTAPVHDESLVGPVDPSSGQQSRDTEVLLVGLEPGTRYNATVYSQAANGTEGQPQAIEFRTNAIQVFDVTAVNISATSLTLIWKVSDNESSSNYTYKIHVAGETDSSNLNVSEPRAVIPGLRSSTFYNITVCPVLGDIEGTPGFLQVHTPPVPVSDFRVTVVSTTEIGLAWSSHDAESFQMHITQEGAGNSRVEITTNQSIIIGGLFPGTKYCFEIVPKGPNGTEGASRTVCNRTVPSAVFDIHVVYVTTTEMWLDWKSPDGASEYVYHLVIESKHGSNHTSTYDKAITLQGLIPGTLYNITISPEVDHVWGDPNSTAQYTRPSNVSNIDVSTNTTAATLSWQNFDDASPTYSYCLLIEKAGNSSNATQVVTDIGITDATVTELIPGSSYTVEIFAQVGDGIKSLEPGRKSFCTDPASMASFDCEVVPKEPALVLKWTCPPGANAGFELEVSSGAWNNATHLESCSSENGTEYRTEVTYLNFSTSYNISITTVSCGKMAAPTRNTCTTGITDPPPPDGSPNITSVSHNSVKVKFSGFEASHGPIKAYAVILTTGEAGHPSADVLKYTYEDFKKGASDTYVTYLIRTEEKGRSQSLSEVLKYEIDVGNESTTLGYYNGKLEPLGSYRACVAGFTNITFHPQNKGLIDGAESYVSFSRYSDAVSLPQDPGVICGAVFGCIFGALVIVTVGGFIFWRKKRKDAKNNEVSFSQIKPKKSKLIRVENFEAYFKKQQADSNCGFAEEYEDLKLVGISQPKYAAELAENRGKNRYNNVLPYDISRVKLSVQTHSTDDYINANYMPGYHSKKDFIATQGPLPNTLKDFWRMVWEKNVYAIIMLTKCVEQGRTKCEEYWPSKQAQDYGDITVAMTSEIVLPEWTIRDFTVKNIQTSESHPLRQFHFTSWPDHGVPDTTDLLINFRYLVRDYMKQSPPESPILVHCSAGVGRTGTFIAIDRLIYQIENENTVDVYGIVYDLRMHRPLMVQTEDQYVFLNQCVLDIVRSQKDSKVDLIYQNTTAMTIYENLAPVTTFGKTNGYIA
Method: as §1

PTPN6 [1] = target: T3, PTPN6 (Homo sapiens, UniProt P29350); experiment: DiFMUP phosphatase screen, single dose […] (% inhibition, hit threshold […]); type: biochemical; settings: read-out: % inhibition at 20 μM
PTPN6 [2] = target: T3, PTPN6; experiment: DiFMUP fluorescence phosphatase assay; Dixon and Lineweaver-Burk plots (IC50 […]); type: biochemical

T3 sequence (P29350 whole entry): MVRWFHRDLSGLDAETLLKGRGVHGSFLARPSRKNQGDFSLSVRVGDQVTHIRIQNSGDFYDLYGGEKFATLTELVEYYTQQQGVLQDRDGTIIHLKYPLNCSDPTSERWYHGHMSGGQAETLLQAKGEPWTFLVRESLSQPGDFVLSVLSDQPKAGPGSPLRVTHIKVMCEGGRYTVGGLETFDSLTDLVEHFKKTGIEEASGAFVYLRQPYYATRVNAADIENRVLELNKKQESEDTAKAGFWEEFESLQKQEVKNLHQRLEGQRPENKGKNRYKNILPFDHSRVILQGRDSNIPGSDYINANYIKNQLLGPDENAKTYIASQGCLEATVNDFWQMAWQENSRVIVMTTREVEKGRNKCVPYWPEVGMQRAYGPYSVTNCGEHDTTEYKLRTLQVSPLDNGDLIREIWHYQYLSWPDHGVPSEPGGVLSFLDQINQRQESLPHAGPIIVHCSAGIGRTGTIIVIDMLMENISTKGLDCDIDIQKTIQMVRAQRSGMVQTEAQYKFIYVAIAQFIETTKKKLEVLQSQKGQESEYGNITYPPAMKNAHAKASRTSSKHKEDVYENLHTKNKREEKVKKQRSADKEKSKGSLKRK

| inhibition at 20 µM (PTPN6 [1]) [%] | Compound | also measured |
| --- | --- | --- |
| > 60 | CCCCCCCCCCCCCCCCC(C(=O)O)C(O)(CC(=O)O)C(=O)O (stereo not shown) [compound 891, agaric acid] | – |
| > 60 | C[C@@H]1O[C@@H](Oc2c(-c3cc(O)c(O)c(O)c3)oc3cc(O)cc(O)c3c2=O)[C@H](O)[C@H](O)[C@H]1O [compound 429, myricetrin] | – |
| > 60 | COc1ccc(-c2oc3c(CC=C(C)C)c(O[C@@H]4O[C@H](CO)[C@@H](O)[C@H](O)[C@H]4O)cc(O)c3c(=O)c2O)cc1 [compound 335, icariside I] | – |

The next lines start with the compound.

| Compound | inhibition at 20 µM (PTPN6 [1]) [%] | also measured |
| --- | --- | --- |
| Cc1cc(=O)oc2c(F)c(OP(=O)(O)O)c(F)cc12 [6,8-difluoro-4-methylumbelliferyl phosphate] | – | Km (PTPN1): 21.6 µM; Km (PTPRJ): 66.4 µM |
| O=C1C=CC(=O)c2c(O)cccc21 [compound 362, juglone] | > 60 | – |
| CCOC(=O)c1cc(O)c(O)c(O)c1 [compound 271, ethyl gallate] | – | Ki (PTPN6 [2]): 3.4 µM |

— publication PMC9105384, “Ethyl Gallate Dual-Targeting PTPN6 and PPARγ Shows Anti-Diabetic and Anti-Obese Effects” (International Journal of Molecular Sciences, 2022)
